Source: patent US9278068B2, “Vesicle compositions” (Sensulin LLC, priority 2011, dated 2016)

Experiments:
[1] = Binding assay: competition with ConA-FITC on glucose-terminated magnetic beads; conditions: relative to ConA; 2.4 μM ConA-FITC, boronic acid 2.5 μM to 20 μM, PBS pH 7.2
Procedure: The binding affinity of boronic acid derivatives to glucose was determined by competition assay using ConcanavalinA (ConA) as the competitive standard, and varying concentrations of the boronic acid derivatives. Carboxy-terminated magnetic beads were activated by suspending the beads in 100 mM 2-(N-morpholino)ethanesulfonic acid (MES) buffer (pH 4.5). Glucosamine (100 mg/mL) was conjugated to the activated magnetic beads using carbodiimide coupling with 1-ethyl-3-(3-dimethylaminopropyl)carbodiimide (EDC) as a crosslinker. The conjugation reaction was carried out in a 96 well plate. The reaction was run for 24 h. The beads were separated by placing the microplate on a magnetic separator and were washed thoroughly with PBS at pH 7.2 to remove unbound glucose, excess EDC, and N-hydroxysulfosuccinimide (Sulfo-NHS).
The glucose terminated beads were co-incubated for 1 h with 2.4 μM ConA (a known binder of carbohydrates) fluorescently tagged with fluorescein isothiocyanate (ConA-FITC), and titrated with concentrations ranging from 2.5 μM to 20 μM of each boronic acid derivative tested. The following controls were used: (A) carboxy-terminated magnetic beads (not conjugated to glucose) were treated with ConA-FITC to determine non-specific binding; and (B) glucose conjugated beads were treated with a high concentration of non-fluorescent ConA to determine maximal binding.
The wells were washed three times with PBS at pH 7.2 to remove unbound boronic acid derivatives and FITC-ConA. The beads were re-suspended in PBS and stirred for 15 min at rt before measuring FITC fluorescence (excitation: 495 nm, top emission: 520 nm; 6 flashes per well; average of n=3 wells in a Flexstation 11^384 microplate reader to quantify the amount of glucose bound to the boronic acids). The fluorescence intensity was measured and used as an indication of the amount of ConA bound to the surface of the beads, or [ConAs]. The ConA-sugar interaction was expected to be inhibited by the boronic acid derivatives, which can bind the sugar molecules and displace the bound ConA-FITC, thereby causing a decrease in fluorescence intensity of the mixture.
The binding constant of the boronic acid derivatives was calculated from the fluorescence intensity. The reduction of fluorescence intensity is related to [ConAs] by Equation 2.
[formula] The relationship between [ConAs] and the amount of boronic acid [BA] is given by Equation 3.
[formula] Simple rearrangement yields Equation 4, from which the ratio of the two equilibrium constants (KConA/KBA) can be derived.
[formula] • The concentration of sugar sites (S1) can be calculated from the intercept of a plot of 1/[ConAs] vs 1/[BA].

HeLa cells = experiment: MTT assay for cytotoxicity; conditions: 2 h
Procedure: The cytotoxicity of the boronic acid derivatives from Table 1 was studied by MTT assay. 150,000 HeLa cells were plated in 96 well plates on the night before the experiments. On the day of experiments, the cells were treated with the boronic acid derivatives at three different concentrations (40 nM, 80 nM, and 160 nM) for 2 h. At the end of the incubation, MTT assays (In-Vitro toxicology MTT based assay kit, Sigma Aldrich, MO) were performed according to the manufacturer's protocol.

NF-κB = NF-κB assay for inflammation (nuclear translocation of NF-κB, immunocytochemistry, PCC); conditions: HeLa cells; for Inflammation (PCC) 40 nM / Inflammation (PCC) 80 nM / Inflammation (PCC) 160 nM: 2 h, PCC between nuclear and cytoplasmic fraction of NF-κB; for nuclear or cytoplasmic localization of NF-κB (FIG. 4 images): boronic acids 80 nM, 2 hrs, LPS positive control
Procedure: 15,000 HeLa cells were plated in 96 well plates the night before the experiments. On the day of the experiments, the cells were treated with the boronic acids (Table 1, below) at three different concentrations (40 nM, 80 nM, and 160 nM) for 2 h. At the end of the incubation, cells were washed with phosphate buffered saline (PBS) and were fixed in 4% paraformaldehyde for 15 min and permeablized with 0.01% Triton X-100 in PBS for 10 min. The cells were washed with PBS three times. Nonspecific sites were blocked with 5% bovine serum albumin (BSA) in PBS and incubated with the Anti-NF-κB for 1 h, followed by incubation with fluorescein isothiocyanate (FITC)-labeled secondary antibody. After washing the cells at the end of the incubation, the cells were treated with 4′,6-diamidino-2-phenylindole (DAPI) for 1 min and kept at 4° C. until further analysis. Images of the cells were acquired with a Beckman-Coulter 100 automated high-throughput microscope system and analyzed using Cytseer software (Vala Sciences, CA). The co-localization of NF-κB was quantified by measuring the PCC between the nuclear and cytoplasmic fraction of the NF-κB molecule. The PCC is a measure of the overlap between the pixel intensities of the nuclear and NF-κB images of the same cell. The PCC values can range from −1 to 1. […] A negative correlation (negative PCC value) indicates an absence of nuclear translocation.

| Sugar Binding Affinity Log(KaBA/KaConA) [1] | Inflammation (PCC) 40 nM (NF-κB) | Inflammation (PCC) 80 nM (NF-κB) | Inflammation (PCC) 160 nM (NF-κB) | SMILES | MTT (% Cell Survival) 40 nM (HeLa cells) | MTT (% Cell Survival) 80 nM (HeLa cells) | MTT (% Cell Survival) 160 nM (HeLa cells) | nuclear or cytoplasmic localization of NF-κB (FIG. 4 images) (NF-κB) |
| --- | --- | --- | --- | --- | --- | --- | --- | --- |
| −1.03 | −0.0824 | 0.03311 | 0.3965 | OB(O)c1cccc(Cl)c1 [3-chlorophenylboronic acid] | 97.1779% | 73.129% | 38.55% |  |
|  | 0.00184 | 0.1802 | 0.129 | CCS(=O)(=O)c1ccc(B(O)O)cc1 [4-ethylsulfonyl-phenylboronic acid] | 67.61% | 66.47% | 37.46% |  |
|  | −0.0169 | 0.02474 | 0.2936 | COc1ccc(F)cc1B(O)O [5-fluoro-2-methoxyphenylboronic acid] | 84.22% | 84.22% | 54.92% |  |
|  | −0.0412 | 0.02463 | 0.2784 | OB(O)c1cccc2cnccc12 [5-isoquinolineboronic acid] | 75.80% | 60.84% | 41.69% | predominantly nuclear NF-κB |
|  | −0.126 | 0.00746 | 0.1336 | Cn1c(B(O)O)cc2ccccc21 [N-methylindole-2-boronic acid] | 63.3131% | 63.6075% | 47.46% |  |
|  | −0.0484 | 0.03475 | 0.1705 | OB(O)C1CC1 [cyclopropylboronic acid] | 81.55% | 107.79% | 80.01% |  |
|  | −0.0205 | 0.02739 | 0.1157 | CC(C)OB(CBr)OC(C)C [diisopropyl(bromomethyl)boronate] | 81.27% | 96.62% | 79.32% |  |
|  | −0.0683 | 0.0268 | 0.1094 | OB(O)c1cccc2c1Sc1ccccc1S2 [thianthrene-1-boronic acid] | 64.19% | 61.32% | 81.10% |  |
|  | −0.0586 | 0.00516 | −0.01522 | O=c1[nH]cc(B(O)O)c(=O)[nH]1 [uracil-5-boronic acid] | 68.5083% | 50.3499% | 28.07% |  |

The next lines start with the compound.

| SMILES | Sugar Binding Affinity Log(KaBA/KaConA) [1] | Inflammation (PCC) 40 nM (NF-κB) | Inflammation (PCC) 80 nM (NF-κB) | Inflammation (PCC) 160 nM (NF-κB) | MTT (% Cell Survival) 40 nM (HeLa cells) | MTT (% Cell Survival) 80 nM (HeLa cells) | MTT (% Cell Survival) 160 nM (HeLa cells) | nuclear or cytoplasmic localization of NF-κB (FIG. 4 images) (NF-κB) |
| --- | --- | --- | --- | --- | --- | --- | --- | --- |
| CC(C)(C)Oc1ncc(B(O)O)c(OC(C)(C)C)n1 [2,4-di-tert-butoxypyrimidin-5-ylboronic acid] | 0.008 | −0.0888 | 0.03106 | 0.1726 | 100.46% | 90.60% | 71.81% | predominantly cytoplasmic NF-κB |
| OB(O)c1ccc(Cl)cc1Cl [2,4-dicholorophenylboronic acid] | −0.93 | −0.0502 | 0.09386 | 0.3067 | 99.29% | 81.59% | 79.9% |  |
| OB(O)c1cccnc1Br [2-bromopyridine-3-boronic acid] | −2.9 | −0.0553 | −0.0396 | 0.1494 | 102.96% | 94.00% | 87.88% |  |
| CN(C)c1cccc(B(O)O)c1 [3-(N,N-dimethylamino)phenyl boronic acid] | −0.14 | −0.1236 | −0.0401 | 0.1862 | 123.37% | 86.2247% | 85.91% |  |
| NC(=O)c1ccc(B(O)O)cc1 [4-aminocarbonylphenylboronic acid] | −1.03 | −0.0838 | 0.01211 | 0 | 86.57% | 97.67% | 57.28% |  |
| CC(=O)c1ccc(B(O)O)s1 [5-acetyl-2-thiopheneboronic acid] |  | 0.02454 | 0.06312 | 0.2343 | 84.50% | 82.81% | 51.27% |  |
| OB(O)c1cc2cc(Br)ccc2s1 [5-bromobenzo-B-thophene-2boronic acid] |  | −0.0244 | −0.01 | 0.1265 | 71.83% | 81.40% | 90.42% |  |
| OB(O)c1cncc(Br)c1 [5-bromopyridine-3-boronic acid] |  | −0.038 | 0.1311 | 0.2913 | 134.748% | 37.2764% | 30.04% |  |
| COc1ccc(C#N)cc1B(O)O [5-cyano-2-methoxyphenylboronic acid] |  | −0.0808 | −0.0523 | −0.08086 | 81.55% | 49.84% | 62.08% |  |
| N#Cc1ccc(B(O)O)s1 [5-cyanothiophene-2-boronic acid] |  | −0.01 | 0.1051 | 0.2434 | 80.56% | 40.00% | 44.78% |  |
| O=Cc1ccc(B(O)O)o1 [5-formyl-2-furanboronic acid] |  | 0.00989 | −0.0122 | 0.1132 | 77.18% | 94.08% | 50.14% |  |
| CC(C)(C)OC(=O)n1cccc1B(O)O [N-boc-2-pyrroleboronic acid] |  | −0.0675 | 0.05743 | 0.1837 | 60.6873% | 51.264% | 39.41% |  |
| OB(O)C1=CCCC1 [cyclopenten-1-yl boronic acid] |  | −0.0551 | 0.01168 | 0.1634 | 99.21% | 79.90% | 68.16% |  |
| OB(O)c1c(F)c(F)c(F)c(F)c1F [pentafluorophenylboronic acid] |  | 0.0154 | 0.0762 | 0.2584 | 65.63% | 60.00% | 50.98% |  |
| OB(O)/C=C/c1ccccc1 [trans-2-Phenylvinylboronic acid] |  | −0.1303 | 0.1523 | 0 | 72.90% | 99.51% | 65.87% |  |
